Laboratory results as given in patent US20150219673A1, “THE USE OF GENE EXPRESSION PROFILING AS A BIOMARKER FOR ASSESSING THE EFFICACY OF HDAC INHIBITOR TREATMENT IN NEURODEGENERATIVE CONDITIONS” (Massachusetts Institute of Technology, priority 2012, published 2015).

Key:
[1] = system: hippocampus of 5XFAD mice; assay: RNA sequencing of hippocampus of 5XFAD mice after chronic CI-994 treatment; format: in vivo, mouse; details: 5XFAD mice hippocampus
From the text: To test if high-throughput genome-wide RNA sequencing can be readily used a biomarker for HDAC inhibitor-mediated treatment of cognitive decline associate with AD, a mouse model of familial AD, the SXFAD mice were used. These mice harbor point mutations in the AD-related pathogenic presenilin and amyloid precursor protein pathways, and recapitulate the majority of human AD pathologies, including amyloid-β deposition, neurodegeneration, and cognitive impairments. […] After completion of treatment, mice were sacrificed, their brain regions dissected, and total RNA extracted of the hippocampus, a brain region important for memory formation and storage. The RNA was quality controlled using Agilent's bioanalyzer 5' and 3'-end labeled and sequenced on an Illumina HiSeq sequencer with 200 million reads per sample. Sequence reads were aligned to the mouse genome, and quality-filtered. Differential analysis was then conducted using Cuffdiff with IIlumina iGenome mm9 UCSC gene annotation.

cognitive function = details: cited from earlier work; for cognitive function in vivo: see US 2011/0224303
[2] = system: peripheral blood mononuclear cells of 5XFAD mice; assay: RNA sequencing of peripheral blood mononuclear cells of 5XFAD mice after CI-994 treatment; format: in vivo, mouse; details: PBMC, CI-994 1 mg/kg i.p. every other day 1 month, FIG. 2
Method: After completion of treatment, blood was drawn and peripheral blood mononuclear cells were rapidly isolated. The cells were washed with PBS and total RNA was extracted using the RNeasy kit (Qiagen). RNA integrity was analyzed using the Bioanalyzer 2100 (Agilent) and the libraries were prepared using the Ovation Ultralow Library System kit (NuGen). Libraries were then pooled in equal amounts and high-throughput sequencing was performed on an Illumina HiSeq 2000 platform. Two individual biological replicates per condition were sequenced.

[3] = CI-994 1 mg/kg i.p. daily 1 month

SMILES: CC(=O)Nc1ccc(C(=O)Nc2ccccc2N)cc1 [CI-994, 4-(acetylamino)-N-(2-aminophenyl)benzamide]
- 1700026L06Rik expression level [1, 3]: 0.5624
- 4833427G06Rik expression level [1, 3]: 1.156
- Abhd2 expression level [1, 3]: 16.6349
- Acaa2 expression level [1, 3]: 15.6611
- Acacb expression level [1, 3]: 0.6669
- Acss3 expression level [1, 3]: 0.8644
- Adcy1 expression level [1, 3]: 121.693
- Aebp1 expression level [1, 3]: 4.334
- Aldh1a1 expression level [1, 3]: 16.8375
- Aldh2 expression level [1, 3]: 35.3667
- Als2cr4 expression level [1, 3]: 14.5748
- Angptl2 expression level [1, 3]: 1.519
- Antxr1 expression level [1, 3]: 4.106
- Apln expression level [1, 3]: 9.121
- Arc expression level [1, 3]: 77.622
- Arhgap28 expression level [1, 3]: 0.18
- Arsg expression level [1, 3]: 13.3427
- Atf4 expression level [1, 3]: 63.7327
- Atp2b3 expression level [1, 3]: 41.3436
- Atp7a expression level [1, 3]: 1.987
- Atp11c expression level [1, 3]: 3.649
- B230217C12Rik expression level [1, 3]: 41.8821
- BC049635 expression level [1, 3]: 0.514
- Baiap2l1 expression level [1, 3]: 0.6224
- Bmp6 expression level [1, 3]: 5.713
- Bmp7 expression level [1, 3]: 2.931
- Brwd3 expression level [1, 3]: 1.786
- Bst2 expression level [1, 3]: 4.307
- Btbd3 expression level [1, 3]: 34.9585
- C1ql2 expression level [1, 3]: 39.6924
- C1qtnf5 expression level [1, 3]: 15.0312
- C230081A13Rik expression level [1, 3]: 8.241
- C530008M17Rik expression level [1, 3]: 17.1167
- Cabp7 expression level [1, 3]: 205.981
- Car14 expression level [1, 3]: 6.584
- Ccdc141 expression level [1, 3]: 2.317
- Ccnd1 expression level [1, 3]: 15.4148
- Cdh3 expression level [1, 3]: 0.3686
- Cdr2 expression level [1, 3]: 5.994
- Cndp1 expression level [1, 3]: 0.2514
- Cnst expression level [1, 3]: 10.5531
- Col4a3 expression level [1, 3]: 0.1459
- Col4a4 expression level [1, 3]: 0.1702
- Col17a1 expression level [1, 3]: 0.02351
- Coro2b expression level [1, 3]: 59.6533
- Cpn1 expression level [1, 3]: 0.2381
- Cpne7 expression level [1, 3]: 72.8282
- Cpt1b expression level [1, 3]: 0
- Crtac1 expression level [1, 3]: 33.2962
- Crtap expression level [1, 3]: 2.382
- Ctnnal1 expression level [1, 3]: 4.538
- Cul4b expression level [1, 3]: 14.4206
- Cxcl14 expression level [1, 3]: 62.1186
- Dab2 expression level [1, 3]: 2.765
- Dclk3 expression level [1, 3]: 6.883
- Dcn expression level [1, 3]: 18.2706
- Dgkh expression level [1, 3]: 8.277
- Dio2 expression level [1, 3]: 13.4167
- Dmrt3 expression level [1, 3]: 0.6692
- Dnahc11 expression level [1, 3]: 0.2181
- Doc2b expression level [1, 3]: 33.8561
- Dpep1 expression level [1, 3]: 0.1399
- Dsg2 expression level [1, 3]: 0.9993
- Dsp expression level [1, 3]: 8.258
- Ephx1 expression level [1, 3]: 17.8668
- Eps8l2 expression level [1, 3]: 1.379
- F11r expression level [1, 3]: 3.438
- Fads2 expression level [1, 3]: 8.701
- Fam38a expression level [1, 3]: 0.6613
- Fam163b expression level [1, 3]: 67.8893
- Fras1 expression level [1, 3]: 0.749
- Fst expression level [1, 3]: 1.755
- Fxyd1 expression level [1, 3]: 37.5709
- Fzd4 expression level [1, 3]: 3.613
- Gabra2 expression level [1, 3]: 45.2624
- Galm expression level [1, 3]: 1.687
- Gas6 expression level [1, 3]: 39.2248
- Glb1l2 expression level [1, 3]: 0.5483
- Glul expression level [1, 3]: 251.125
- Gm221 expression level [1, 3]: 0.499
- Gm853 expression level [1, 3]: 0
- Gm11744 expression level [1, 3]: 2.594
- Gng7 expression level [1, 3]: 64.066
- Gprc5c expression level [1, 3]: 1.254
- Grm2 expression level [1, 3]: 13.2878
- Gyltl1b expression level [1, 3]: 0.192
- Hapln1 expression level [1, 3]: 10.6547
- Hbb-b2 expression level [1, 3]: 3.714
- Hemk1 expression level [1, 3]: 4.074
- Homer2 expression level [1, 3]: 14.9404
- Hsd11b1 expression level [1, 3]: 28.1849
- Hspg2 expression level [1, 3]: 0.7372
- Ifi27l1 expression level [1, 3]: 36.0763
- Igfbp5 expression level [1, 3]: 38.2003
- Igfbp7 expression level [1, 3]: 18.1462
- Igfn1 expression level [1, 3]: 0.1271
- Iqgap1 expression level [1, 3]: 3.038
- Isoc1 expression level [1, 3]: 14.1426
- Kcnj2 expression level [1, 3]: 3.205
- Kcnj10 expression level [1, 3]: 64.1636
- Kif9 expression level [1, 3]: 1.8759
- Kit expression level [1, 3]: 18.7665
- Klhdc7a expression level [1, 3]: 4.613
- Lama5 expression level [1, 3]: 0.8869
- Lamp2 expression level [1, 3]: 40.9038
- Leprel4 expression level [1, 3]: 7.907
- Lingo1 expression level [1, 3]: 88.754
- Llgl2 expression level [1, 3]: 0.4373
- Lmx1a expression level [1, 3]: 0.5034
- Loxl1 expression level [1, 3]: 1.486
- Loxl2 expression level [1, 3]: 0.1912
- Lrp5 expression level [1, 3]: 2.432
- Lrp10 expression level [1, 3]: 14.6733
- Ltc4s expression level [1, 3]: 7.102
- Lypd1 expression level [1, 3]: 47.9728
- Mccc1 expression level [1, 3]: 5.41
- Mfsd7c expression level [1, 3]: 0.65
- Mmp15 expression level [1, 3]: 6.699
- Mpp7 expression level [1, 3]: 1.162
- Myoc expression level [1, 3]: 11.9051
- Myof expression level [1, 3]: 0.8629
- Ndst4 expression level [1, 3]: 5.129
- Nek11 expression level [1, 3]: 0.5801
- Nid2 expression level [1, 3]: 1.141
- Nos1 expression level [1, 3]: 8.7895
- Npas4 expression level [1, 3]: 3.8842
- Npr1 expression level [1, 3]: 1.7036
- Nqo1 expression level [1, 3]: 3.794
- Nt5dc1 expression level [1, 3]: 1.205
- Oca2 expression level [1, 3]: 0.467
- Odz4 expression level [1, 3]: 7.194
- Ooep expression level [1, 3]: 0.07202
- Pcp4l1 expression level [1, 3]: 50.8954
- Pgcp expression level [1, 3]: 8.02
- Phactr2 expression level [1, 3]: 6.295
- Pla2g4e expression level [1, 3]: 1.85
- Plek2 expression level [1, 3]: 0.4301
- Plekha2 expression level [1, 3]: 12.177
- Pltp expression level [1, 3]: 36.9312
- Plxnb2 expression level [1, 3]: 10.316
- Polr1a expression level [1, 3]: 5.4566
- Pon1 expression level [1, 3]: 0.12
- Ppfibp2 expression level [1, 3]: 2.53
- Ppp1r1a expression level [1, 3]: 67.7123
- Ppp1r1b expression level [1, 3]: 37.5707
- Prelp expression level [1, 3]: 9.53
- Prox1 expression level [1, 3]: 14.3616
- Prps2 expression level [1, 3]: 12.0363
- Ptpn14 expression level [1, 3]: 1.315
- Rab20 expression level [1, 3]: 1.273
- Rai14 expression level [1, 3]: 1.053
- Rbp3 expression level [1, 3]: 0.5204
- Rd3 expression level [1, 3]: 0.6656
- Ripk4 expression level [1, 3]: 0.1565
- Rrh expression level [1, 3]: 0.05235
- Rsph4a expression level [1, 3]: 2.9407
- Scg5 expression level [1, 3]: 219.826
- Scn4b expression level [1, 3]: 8.643
- Scube1 expression level [1, 3]: 4.586
- Scube3 expression level [1, 3]: 0.6281
- Sdk1 expression level [1, 3]: 0.6821
- Serpinb1b expression level [1, 3]: 0.9169
- Sfrp5 expression level [1, 3]: 0.5384
- Slc4a10 expression level [1, 3]: 46.0086
- Slc5a3 expression level [1, 3]: 5.289
- Slc12a2 expression level [1, 3]: 20.5749
- Slc12a4 expression level [1, 3]: 5.898
- Slc12a7 expression level [1, 3]: 1.124
- Slc16a2 expression level [1, 3]: 14.2113
- Slc16a4 expression level [1, 3]: 2.157
- Slc16a9 expression level [1, 3]: 1.385
- Slc16a12 expression level [1, 3]: 1.226
- Slc22a6 expression level [1, 3]: 0.7873
- Slc23a2 expression level [1, 3]: 27.4105
- Slc25a39 expression level [1, 3]: 30.7081
- Slc29a4 expression level [1, 3]: 11.9409
- Slc37a2 expression level [1, 3]: 0.8387
- Slc39a4 expression level [1, 3]: 1.073
- Slco1c1 expression level [1, 3]: 20.1851
- Smpdl3a expression level [1, 3]: 19.7502
- Sod3 expression level [1, 3]: 6.1
- Spag16 expression level [1, 3]: 0.4608
- Spint2 expression level [1, 3]: 15.9511
- Sptlc3 expression level [1, 3]: 0.2346
- Ssfa2 expression level [1, 3]: 10.0587
- Stk39 expression level [1, 3]: 28.2125
- Stra6 expression level [1, 3]: 4.817
- Tbc1d1 expression level [1, 3]: 4.993
- Tbc1d2 expression level [1, 3]: 0.8273
- Tbc1d9 expression level [1, 3]: 19.741
- Tbcel expression level [1, 3]: 17.0147
- Tcn2 expression level [1, 3]: 9.139
- Tead1 expression level [1, 3]: 4.075
- Tgfbi expression level [1, 3]: 1.202
- Tgfbr3 expression level [1, 3]: 3.88
- Timp2 expression level [1, 3]: 84.9023
- Tinagl1 expression level [1, 3]: 2.32
- Tjp3 expression level [1, 3]: 0.9513
- Tlr2 expression level [1, 3]: 1.035
- Tmem27 expression level [1, 3]: 0.3657
- Tmem98 expression level [1, 3]: 10.1715
- Tmem108 expression level [1, 3]: 8.4143
- Tns1 expression level [1, 3]: 3.868
- Tspan33 expression level [1, 3]: 15.0442
- Ttc21a expression level [1, 3]: 1.107
- Vamp8 expression level [1, 3]: 13.404
- Vcam1 expression level [1, 3]: 10.2949
- Vcp expression level [1, 3]: 1.545
- Wdfy1 expression level [1, 3]: 7.05
- Wdr16 expression level [1, 3]: 1.6294
- Wfs1 expression level [1, 3]: 43.1125
- Zfp185 expression level [1, 3]: 1.3415
- Zfp605 expression level [1, 3]: 4.398
- rescue of the downregulated genes [1, 3]: 100%
- rescue of the differentially expressed genes to levels comparable to control mice ([1]; CI-994 1 mg/kg i.p. daily 1 month, FIG. 1): rescued to near completion
- number of genes rescued by CI-994 treatment ([1]; FIG. 1 heatmap, significance level p<0.05): 239 genes
- AD-related cognitive impairments (cognitive function; earlier finding stated for CI-994): reduce AD-related cognitive impairments
- cognitive function in vivo (cognitive function): improve cognitive function in vivo
- number of differentially expressed genes (wild type vs 5XFAD) rescued to control levels [2]: 69 genes

SMILES: Nc1ccc(C(=O)Nc2ccccc2N)cc1 [dinaline]
- cognitive function in vivo (cognitive function): improve cognitive function in vivo
